These results are taken from ChEMBL document CHEMBL1140576, “Discovery of novel non-cytotoxic salicylhydrazide containing HIV-1 integrase inhibitors” (Bioorg Med Chem Lett, 2007).

SMILES strings stand for the structures. pIC50: −log10 of the molar value. Calls of active or inactive are those of the source. The calls are words filed in the database; no cut-off is given here.

The target of series [1] is T1, Human immunodeficiency virus type 1 integrase (Human immunodeficiency virus 1, UniProt Q7ZJM1). The experiment in a line: Inhibition of HIV1 integrase strand transfer activity.
T1 sequence (Q7ZJM1 whole entry): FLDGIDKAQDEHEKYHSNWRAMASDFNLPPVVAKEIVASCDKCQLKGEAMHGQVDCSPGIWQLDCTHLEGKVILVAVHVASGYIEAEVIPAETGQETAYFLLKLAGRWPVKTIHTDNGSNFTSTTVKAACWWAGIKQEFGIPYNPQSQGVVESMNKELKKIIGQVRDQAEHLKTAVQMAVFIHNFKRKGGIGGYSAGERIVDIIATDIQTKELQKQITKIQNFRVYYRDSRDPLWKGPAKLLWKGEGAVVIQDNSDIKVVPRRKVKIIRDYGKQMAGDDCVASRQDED
A short description of series [2]: Cytotoxicity against human MDA-MB-435 cells. In kind it is cell-based.
The test system of a further series is MDA-MB-435. The experiment in a line: Cytotoxicity against human MDA-MB-435 cells at 20 uM. The note with it: mda-mb-435, 20 µM. Type of series: cell-based.
Series [3] in a line: Cytotoxicity against human HCT116 cells. In kind it is cell-based, HCT-116.
A further series has as its system HCT-116. The experiment in a line: Cytotoxicity against human HCT116 cells at 20 uM. In kind it is cell-based. The note with it: hct-116, 20 µM.
Series [4] deals with T1, Human immunodeficiency virus type 1 integrase. Description: Inhibition of HIV1 integrase 3'-end processing activity.
Series [5] addresses Human immunodeficiency virus type 1 integrase (Human immunodeficiency virus 1) (UniProt Q7ZJM1). The experiment in a line: Inhibition of HIV1 integrase 3'-end processing activity at 100 uM.
The target is the same in series [6]. Description: Inhibition of HIV1 integrase strand transfer activity at 100 uM.

Human immunodeficiency virus type 1 integrase (Human immunodeficiency virus 1), sequence (Q7ZJM1 as listed by the source): as the sequence (Q7ZJM1 whole entry) above

One may read the pIC50 as −log10 of the IC50, conventionally taken in molar units. Read a low pIC50 as a high IC50. The CC50 is the concentration at which the toxic effect on the cells reaches its halfway point. A high value points to better tolerance by the cells. With `COc1ccc(-c2nnc(SCC(=O)NNC(=O)c3ccccc3O)n2-c2ccccc2)cc1OC`, the pIC50 in series [1] is 4.68; in series [4], 4.66. Moreover, the CC50 in series [2] and in series [3] was over 20 µM in each case. The results for the Activity in the series on MDA-MB-435 and with HCT-116 were 13% and 24%, respectively.
Consider `O=C(CSc1nnc(Cc2ccccc2)n1-c1cccc(Cl)c1)NNC(=O)c1ccccc1O`, for which the negative-log IC50 (pIC50) was 5.10 in series [1] and 5.05 in series [4]. Further, the CC50 in series [2] and in series [3] was over 20 µM each time. Moreover, the values for the Activity in the series with MDA-MB-435 and with HCT-116 were 5% and 11%, respectively.
Turning to `O=C(CSc1nnc(-c2ccccc2O)n1Cc1ccccc1)NNC(=O)c1ccccc1O`, the pIC50 in series [1] is 5.05; in series [4], 4.82. The CC50 in series [2] and in series [3] was over 20 µM throughout. Besides, the Activity with MDA-MB-435 is 15%; in the series on HCT-116 it was 8%.
As for `Cn1c(SCC(=O)NNC(=O)c2ccccc2O)nnc1-c1ccccc1`, the figures for the negative-log IC50 (pIC50) in series [1] and in series [4] were 4.24 and 4.19, respectively. For the same compound, the CC50 in series [2] and in series [3] was over 20 µM each time. The Activity turned out to be 32% with MDA-MB-435 and 39% in the series on HCT-116.
Regarding `Cc1ccc(-n2c(SCC(=O)NNC(=O)c3ccccc3O)nnc2-c2ccccc2O)cc1`, the figures for the negative logarithm of the IC50 (pIC50) in series [1] and in series [4] were 5.52 and 5.30, respectively. The CC50 in series [2] and in series [3] was over 20 µM each time. The Activity in the series with MDA-MB-435 came to 12%; in the series on HCT-116, 26%.
For `O=C(CSc1nnc(-c2ccncc2)n1-c1ccccc1)N/N=C/c1ccccc1O`, the negative-log IC50 (pIC50) in series [1] and in series [4] was under 4.00 each time. The CC50 in series [2] and in series [3] was over 20 µM each time. The result in series [5] and in series [6] was inactive. Moreover, the Activity with MDA-MB-435 stood at 44%; in the series with HCT-116 it was 40%.
In the case of `Cc1ccc(-n2c(SCC(=O)NNC(=O)c3ccccc3O)nnc2-c2ccccc2)cc1`, the values for the pIC50 in series [1] and in series [4] were 4.92 and 4.64, respectively. For the same compound, the CC50 was 20 µM in series [2] and 15 µM in series [3].
Take `O=C(CSc1nnc(-c2ccccc2)n1Cc1ccccc1)NNC(=O)c1ccccc1O`: the pIC50 in series [1] is 5.05; in series [4] it was 4.68. Further, the CC50 in series [2] and in series [3] was over 20 µM each time. Besides, the Activity with MDA-MB-435 is recorded as 22%; with HCT-116, 34%.
Consider `O=C(CSc1nnc(-c2ccc(Cl)cc2)n1-c1ccccc1)NNC(=O)c1ccccc1O`, for which the pIC50 in series [1] was 5.30; in series [4] it was 4.96. Moreover, the CC50 in series [2] and in series [3] was over 20 µM in each case. For the same compound, the Activity with MDA-MB-435 was 30%; in the series on HCT-116, 36%.
On to `O=C(CSc1nnc(-c2ccc(Cl)cc2)n1-c1ccccc1)N/N=C/c1ccccc1C(=O)O`, for which the pIC50 in series [1] and in series [4] was under 4.00 in each case. In addition, the CC50 in series [2] and in series [3] was over 20 µM throughout. The result in series [5] and in series [6] was inactive. Further, the Activity with MDA-MB-435 came out at 8%; with HCT-116, 0%.
For `O=C(CSc1nnc(Cc2ccccc2)n1C1CCCCC1)NNC(=O)c1ccccc1O`, the negative logarithm of the IC50 (pIC50) was 4.77 in series [1] and 4.68 in series [4]. For the same compound, the CC50 in series [2] and in series [3] was over 20 µM throughout. Further, the Activity with MDA-MB-435 was determined as 5%; in the series on HCT-116, 11%.
As for `Cc1cc(C)nc(SCc2nnc(SCC(=O)NNC(=O)c3ccccc3O)n2C)n1`, the pIC50 in series [1] and in series [4] was under 4.00 in each case. Besides, the 50% cytotoxic concentration (CC50) in series [2] and in series [3] was over 20 µM throughout. Besides, the Activity in the series with MDA-MB-435 is reported as 16%; in the series with HCT-116, 21%.
For `O=C(CSc1nnnn1-c1ccccc1)NNC(=O)c1ccc(O)cc1O`, the pIC50 in series [1] was 4.21; in series [4], 4.17. For the same compound, the CC50 in series [2] and in series [3] was over 20 µM in each case. The Activity in the series with MDA-MB-435 is given as 3%; in the series with HCT-116, 15%.
In the case of `COc1ccccc1-n1c(SCC(=O)NNC(=O)c2ccccc2O)nnc1-c1ccccc1O`, the pIC50 in series [1] was 5.22; in series [4], 5.10. The CC50 was over 20 µM in series [2] and 20 µM in series [3]. Moreover, the Activity in the series with MDA-MB-435 was determined as 40%.
Consider `Cc1cc(C)nc(SCc2nnc(SCC(=O)NNC(=O)c3ccccc3O)n2-c2ccccc2)n1`, for which the pIC50 in series [1] is 4.57; in series [4] it was 4.29. In addition, the 50% cytotoxic concentration (CC50) in series [2] and in series [3] was over 20 µM in each case. The Activity with MDA-MB-435 turned out to be 3%; in the series on HCT-116, 0%.
With `COc1ccc(-n2c(Cc3ccccc3)nnc2SCC(=O)NNC(=O)c2ccccc2O)cc1`, the pIC50 in series [1] is 4.77; in series [4], 4.74. Further, the half-maximal cytotoxic concentration (CC50) in series [2] and in series [3] was over 20 µM each time. The Activity in the series with MDA-MB-435 came out at 10%; in the series on HCT-116 it was 0%.
With `O=C(CSc1nnc(-c2ccncc2)n1-c1ccc(F)cc1)NNC(=O)c1ccccc1O`, the pIC50 is 4.51 in series [1] and 4.31 in series [4]. For the same compound, the cytotoxic concentration (CC50) in series [2] and in series [3] was over 20 µM in each case. Besides, the Activity in the series with MDA-MB-435 came out at 14%; in the series with HCT-116 it was 22%.
